In patent US20090298894A1, “AMINO ACID COMPOUNDS” (Asahi Kasei Pharma Corporation, priority 2008, published 2009):
Where a name gives a salt, the structure may show the parent alone.

Target: T1, human S1P1 (Homo sapiens, UniProt P21453)
T1 construct: expressed in transfected cells
Experiment: 35S-GTPγS binding assay using a membrane prepared from CHO cells which stably express S1P1 receptor
Type: biochemical
Settings: CHO cell membrane fraction stably expressing human S1P1, read-out: EC50 (concentration of agonist required to give 50% of its own maximum increase ratio), human S1P1
Protocol: ^35S-GTPγS Binding Assay Using a Membrane Prepared from CHO Cells Which Stably Express S1P1 Receptor
Functional activation of human S1P1 by the compounds was determined based on quantification of ^35S-GTPγS binding to G protein due to the receptor activation, by using a cell membrane fraction prepared from CHO cells in which human S1P1 are stably expressed. As for human S1P1, the above described human S1P1 was used. Membrane proteins as prepared and various concentrations of sphingosine-1-phosphate or the compounds diluted in a solvent such as DMSO were incubated in a solution comprising 20 mM Tris-Cl (pH 7.5), 100 mM NaCl, 10 mM MgCl2, […] (Upstate), 0.1% BSA (fatty acid free, Sigma) and 25 pM ^35S-GTPγS (specific activity 1250 Ci/mmol) in 96 well microtiter plates. Binding was performed by incubating them for 90 minutes at room temperature, and then terminated by harvesting the membrane proteins onto multiscreeen harvest FB plates (Millipore) using Millipore multiscreen separation system. After drying the harvest plates at least for 12 hours, 25 μl of MicroScint-O (Perkin Elmer) was added to each well and radioactivity was measured using a Top Counter.
Having the value measured for the well to which a solvent has been added as a control value, the agonist activity of the compounds was determined by comparing the increase in the well to which a test compound has been added to the control value, and therefore an increase ratio for each concentration of the compounds was obtained. EC50 values were culcurated as defined to be the concentration of agonist required to give 50% of its own maximum increase ratio.

T1 sequence (P21453 whole entry): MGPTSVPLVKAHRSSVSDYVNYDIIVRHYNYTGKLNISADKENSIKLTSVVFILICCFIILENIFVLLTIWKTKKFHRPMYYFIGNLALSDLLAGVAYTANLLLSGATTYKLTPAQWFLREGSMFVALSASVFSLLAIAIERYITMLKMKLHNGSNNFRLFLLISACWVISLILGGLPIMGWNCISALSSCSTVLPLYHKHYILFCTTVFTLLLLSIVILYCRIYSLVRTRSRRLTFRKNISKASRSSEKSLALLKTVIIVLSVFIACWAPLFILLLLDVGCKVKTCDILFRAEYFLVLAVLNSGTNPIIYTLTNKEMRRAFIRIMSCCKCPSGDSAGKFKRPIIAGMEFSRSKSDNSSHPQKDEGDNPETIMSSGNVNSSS

SMILES	EC50
Cc1cc(-c2nc(-c3cc(C)c4c(c3)CN([C@H]3C[C@H](C(=O)O)C3)C4)no2)ccc1-c1ccccc1C(F)(F)F [Example 54]	< 10 nM
Cc1cc(-c2nc(-c3cc(Cl)c4c(c3)CN([C@H]3C[C@H](C(=O)O)C3)C4)no2)ccc1-c1ccccc1 [Example 77]	< 10 nM
COc1cccc(-c2ccc(-c3nc(-c4ccc5c(c4)CCC5N[C@H]4C[C@H](C(=O)O)C4)no3)cc2C)c1F (some centres unmarked) [Example 38]	< 10 nM
Cc1cc(-c2nc(-c3ccc4c(c3)CCC4N[C@H]3C[C@H](C(=O)O)C3)no2)ccc1-c1cccc(C(F)(F)F)c1C(F)(F)F (some centres unmarked) [Example 47]	< 10 nM
Cc1cc(-c2nc(-c3ccc4c(c3)CCC4N[C@H]3C[C@H](C(=O)O)C3)no2)ccc1-c1ccccc1OC(F)(F)F (some centres unmarked) [Example 17]	< 10 nM
Cc1cc(-c2nc(-c3ccc4c(c3)CCC4N[C@H]3C[C@H](C(=O)O)C3)no2)ccc1-c1c(F)ccc(C)c1Cl (some centres unmarked) [Example 43]	< 10 nM
Cc1cc(-c2nc(-c3ccc4c(c3)CCC4N[C@H]3C[C@H](C(=O)O)C3)no2)c(F)cc1-c1ccccc1C(F)(F)F (some centres unmarked) [Example 30]	< 10 nM
Cc1cc(-c2nc(-c3ccc4c(c3)CCC4N[C@H]3C[C@H](C(=O)O)C3)no2)ccc1-c1cc(F)cc(F)c1F (some centres unmarked) [Example 46]	< 10 nM
Cc1cc(-c2nc(-c3ccc4c(c3)CN([C@H]3C[C@H](C(=O)O)C3)C4)no2)ccc1-c1cccc(F)c1C(F)(F)F [Example 95]	< 10 nM
O=C(O)[C@H]1C[C@H](NC2CCc3cc(-c4noc(-c5ccc(-c6ccccc6)c(F)c5)n4)ccc32)C1 (some centres unmarked) [Example 60]	< 10 nM
O=C(O)[C@H]1C[C@H](NC2CCc3cc(-c4noc(-c5ccc(-c6ccccc6)c(Cl)c5)n4)ccc32)C1 (some centres unmarked) [Example 62]	< 10 nM
Cc1cc(-c2nc(-c3ccc4c(c3)CCC4N[C@H]3C[C@H](C(=O)O)C3)no2)c(F)cc1-c1ccccc1OC(F)(F)F (some centres unmarked) [Example 24]	< 10 nM
Cc1cc(-c2nc(-c3ccc4c(c3)CCC4N[C@H]3C[C@H](C(=O)O)C3)no2)ccc1-c1cccc(F)c1F (some centres unmarked) [Example 28]	< 10 nM
Cc1cc(-c2nc(-c3ccc4c(c3)CN([C@H]3C[C@H](C(=O)O)C3)C4)no2)ccc1-c1ccccc1C(F)(F)F [Example 85]	< 10 nM
N#Cc1ccccc1-c1ccc(-c2nc(-c3ccc4c(c3)CCC4N[C@H]3C[C@H](C(=O)O)C3)no2)cc1Cl (some centres unmarked) [Example 63]	< 10 nM
Cc1cc(-c2nc(-c3ccc4c(c3)CN([C@H]3C[C@H](C(=O)O)C3)C4)no2)ccc1-c1ccccc1F [Example 84]	< 10 nM
Cc1cc(-c2nc(-c3ccc4c(c3)CCC4N[C@H]3C[C@H](C(=O)O)C3)no2)cc(C)c1-c1ccccc1F (some centres unmarked) [Example 15]	< 10 nM
Cc1cc(-c2nc(-c3ccc4c(c3)CCC4N[C@H]3C[C@H](C(=O)O)C3)no2)ccc1-c1ccoc1 (some centres unmarked) [Example 14]	< 10 nM
Cc1cc(-c2nc(-c3ccc4c(c3)CCC4N[C@H]3C[C@H](C(=O)O)C3)no2)c(F)cc1-c1ccccc1F (some centres unmarked) [Example 26]	< 10 nM

SMILES	EC50
Cc1cc(-c2nc(-c3ccc4c(c3)CCC4N[C@H]3C[C@H](C(=O)O)C3)no2)ccc1-c1cccc(Cl)c1F (some centres unmarked) [Example 34]	< 10 nM
Cc1cc(-c2nc(-c3ccc4c(c3)CN([C@H]3C[C@H](C(=O)O)C3)C4)no2)ccc1-c1ccsc1 [Example 78]	< 10 nM
Cc1cc(-c2nc(-c3ccc4c(c3)CCC4N[C@H]3C[C@H](C(=O)O)C3)no2)cc(C)c1-c1ccsc1 (some centres unmarked) [Example 16]	< 10 nM
Cc1cc(-c2nc(-c3ccc4c(c3)CN([C@H]3C[C@H](C(=O)O)C3)C4)no2)ccc1-c1ccccc1Cl [Example 66]	< 10 nM
Cc1cc(-c2nc(-c3ccc4c(c3)CN([C@H]3C[C@H](C(=O)O)C3)C4)no2)c(F)cc1-c1ccccc1F [Example 89]	< 10 nM
Cc1cc(-c2nc(-c3ccc4c(c3)CCC4N[C@H]3C[C@H](C(=O)O)C3)no2)ccc1-c1cccc(F)c1C(F)(F)F (some centres unmarked) [Example 39]	< 10 nM
O=C(O)[C@H]1C[C@H](N2Cc3ccc(-c4noc(-c5ccc(-c6ccccc6F)c(Cl)c5)n4)cc3C2)C1 [Example 68]	< 10 nM
Cc1cc(-c2nc(-c3ccc4c(c3)CCC4N[C@H]3C[C@H](C(=O)O)C3)no2)ccc1-c1c(F)cccc1F (some centres unmarked) [Example 42]	< 10 nM
Cc1cc(-c2nc(-c3ccc4c(c3)CN([C@H]3C[C@H](C(=O)O)C3)C4)no2)ccc1-c1cscc1C [Example 88]	< 10 nM
Cc1cc(-c2nc(-c3ccc4c(c3)CCC4N[C@H]3C[C@H](C(=O)O)C3)no2)ccc1-c1cc(Cl)ccc1F (some centres unmarked) [Example 35]	< 10 nM
Cc1cc(-c2nc(-c3ccc4c(c3)CN([C@H]3C[C@H](C(=O)O)C3)C4)no2)ccc1-c1cccc(F)c1F [Example 90]	< 10 nM
Cc1cc(-c2nc(-c3ccc4c(c3)CN([C@H]3C[C@@H](C(=O)O)C3)C4)no2)ccc1-c1ccccc1 [Example 104]	< 10 nM
O=C(O)C1CC(NC2CCc3cc(-c4noc(-c5ccc(-c6ccccc6F)c(Cl)c5)n4)ccc32)C1 (stereo not drawn) [Example 55, 1,3-Trans-3-(5-(5-(2-chloro-2′-fluorobiphenyl-4-yl)-1,2,4-oxadiazol-3-yl)-2,3-dihydro-1H-inden-1-ylamino)cyclobutane carboxylic acid hydrochloric acid salt]	< 10 nM
Cc1cc(-c2nc(-c3ccc4c(c3)CCC4N[C@H]3C[C@H](C(=O)O)C3)no2)ccc1-c1cccc(F)c1C#N (some centres unmarked) [Example 64]	< 10 nM
Cc1cc(-c2nc(-c3ccc4c(c3)CCC4N[C@H]3C[C@H](C(=O)O)C3)no2)ccc1-c1ccsc1 (some centres unmarked) [Example 3]	< 10 nM
Cc1cc(-c2nc(-c3ccc4c(c3)CCC4N[C@H]3C[C@H](C(=O)O)C3)no2)c(F)cc1-c1cccc(F)c1F (some centres unmarked) [Example 32]	< 10 nM
Cc1cc(-c2nc(-c3ccc4c(c3)CN([C@H]3C[C@H](C(=O)O)C3)C4)no2)ccc1-c1cc(F)cc(F)c1F [Example 100]	< 10 nM
Cc1cc(-c2nc(-c3ccc4c(c3)CCC4N[C@H]3C[C@H](C(=O)O)C3)no2)ccc1-c1ccccc1Cl (some centres unmarked) [Example 58]	< 10 nM
Cc1cc(-c2nc(-c3ccc4c(c3)CCC4N[C@H]3C[C@H](C(=O)O)C3)no2)ccc1-c1c(F)ccc(F)c1F (some centres unmarked) [Example 45]	< 10 nM

SMILES	EC50
Cc1cc(-c2nc(-c3ccc4c(c3)CCC4N[C@H]3C[C@H](C(=O)O)C3)no2)c(F)cc1-c1cccc(F)c1C(F)(F)F (some centres unmarked) [Example 40]	< 10 nM
Cc1cc(-c2nc(-c3ccc4c(c3)CCC4N[C@H]3C[C@H](C(=O)O)C3)no2)ccc1-c1cccc(I)c1C(F)(F)F (some centres unmarked) [Example 52]	< 10 nM
Cc1cc(-c2nc(-c3ccc4c(c3)CCC4NC3CC(C(=O)O)C3)no2)ccc1-c1cccc([N+](=O)[O-])c1C(F)(F)F (centres unmarked) [Example 49]	< 10 nM
O=C(O)[C@H]1C[C@H](NC2CCc3cc(-c4noc(-c5ccc(-c6ccccc6F)c(F)c5)n4)ccc32)C1 (some centres unmarked) [Example 61]	< 10 nM
Cc1cc(-c2nc(-c3ccc4c(c3)CCC4N[C@H]3C[C@H](C(=O)O)C3)no2)ccc1-c1cccc(F)c1 (some centres unmarked) [Example 4]	< 10 nM
Cc1cc(-c2nc(-c3ccc4c(c3)CN([C@H]3C[C@H](C(=O)O)C3)C4)no2)c(F)cc1-c1cc(F)cc(F)c1F [Example 102]	< 10 nM
Cc1cc(-c2nc(-c3ccc4c(c3)CCC4N[C@H]3C[C@H](C(=O)O)C3)no2)ccc1-c1cccc(C(F)(F)F)c1F (some centres unmarked) [Example 31]	< 10 nM
Cc1cc(-c2nc(-c3ccc4c(c3)CCC4N[C@H]3C[C@H](C(=O)O)C3)no2)ccc1-c1c(Cl)ccc(C)c1F (some centres unmarked) [Example 44]	< 10 nM
Cc1cc(-c2nc(-c3ccc4c(c3)CCC4N[C@H]3C[C@H](C(=O)O)C3)no2)cc(C)c1-c1ccccc1 (some centres unmarked) [Example 2]	< 10 nM
Cc1cc(-c2nc(-c3ccc4c(c3)CCC4N[C@H]3C[C@H](C(=O)O)C3)no2)ccc1-c1ccccc1F (some centres unmarked) [Example 20]	< 10 nM
Cc1cc(-c2nc(-c3ccc4c(c3)CCC4N[C@H]3C[C@H](C(=O)O)C3)no2)c(F)cc1-c1cccc(F)c1 (some centres unmarked) [Example 23]	< 10 nM
Cc1cc(-c2nc(-c3ccc4c(c3)CN([C@H]3C[C@H](C(=O)O)C3)C4)no2)c(F)cc1-c1cccc(F)c1F [Example 93]	< 10 nM
Cc1cc(-c2nc(-c3ccc4c(c3)CCC4N[C@H]3C[C@H](C(=O)O)C3)no2)c(F)cc1-c1ccsc1 (some centres unmarked) [Example 5]	< 10 nM
Cc1cc(-c2nc(-c3ccc4c(c3)CCC4N[C@H]3C[C@H](C(=O)O)C3)no2)ccc1-c1cccc(Br)c1C(F)(F)F (some centres unmarked) [Example 51]	< 10 nM
Cc1cc(-c2nc(-c3ccc4c(c3)CCC4N[C@H]3C[C@H](C(=O)O)C3)no2)ccc1-c1cccc(Cl)c1C(F)(F)F (some centres unmarked) [Example 50]	< 10 nM
Cc1cscc1-c1c(C)cc(-c2nc(-c3ccc4c(c3)CCC4N[C@H]3C[C@H](C(=O)O)C3)no2)cc1C (some centres unmarked) [Example 22]	< 10 nM
Cc1cc(-c2nc(-c3ccc4c(c3)CN([C@H]3C[C@@H](C(=O)O)C3)C4)no2)c(F)cc1-c1cc(F)cc(F)c1F [Example 106]	< 10 nM
Cc1cc(-c2nc(-c3ccc4c(c3)CCC4N[C@H]3C[C@H](C(=O)O)C3)no2)c(F)cc1-c1ccccc1 (some centres unmarked) [Example 12]	< 10 nM
